# Data published in EP1019392B1, “TRICYCLIC AMIDES USEFUL FOR INHIBITION OF G-PROTEIN FUNCTION AND FOR TREATMENT OF PROLIFERATIVE DISEASES” (SCHERING CORPORATION, priority 1995, dated 1997).
# Like-named read-outs stand apart in the source and are kept apart here.
# Assays:
# [1] = test system: Ras-CVLS processing in COS monkey kidney cells; test: COS cell assay: inhibition of Ras-CVLS processing (Western blot); type: cell-based
# Description: • 1. In vitro enzyme assays: Inhibition of farnesyl protein transferase and geranylgeranyl protein transferase. Both farnesyl protein transferase (FPT) and geranylgeranyl protein transferase (GGPT) I were partially purified from rat brain by ammonium sulfate fractionation followed by Q-Sepharose (Pharmacia, Inc.) anion exchange chromatography essentially as described by Yokoyama et al (Yokoyama, K., et al., (1991), A protein geranylgeranyltransferase from bovine brain: Implications for protein prenylation specificity, Proc. Natl. Acad. Sci USA 88: 5302-5306, the disclosure of which is incorporated herein by reference thereto). Human farnesyl protein transferase was also expressed in E. coli, using cDNA clones encoding both the a and b subunits. The methods used were similar to those published (Omer, C. et al., (1993), Characterization of recombinant human farnesyl protein transferase: Cloning, expression, farnesyl diphosphate binding, and functional homology with yeast prenyl-protein transferases, Biochemistry 32:5167-5176). Human farnesyl protein transferase was partially-purified from the soluble protein fraction of E. coli as described above. […] Two forms of val^12-Ha-Ras protein were prepared as substrates for these enzymes, differing in their carboxy terminal sequence. One form terminated in cysteine-valine-leucine-serine (Ras-CVLS) the other in cystein-valine-leucine-leucine (Ras-CVLL). Ras-CVLS is a substrate for the farnesyl protein transferase while Ras-CVLL is a substrate for geranylgeranyl protein transferase I. The cDNAs encoding these proteins were constructed so that the proteins contain an amino-terminal extension of 6 histidine residues. Both proteins were expressed in Escherichia coli and purified using metal chelate affinity chromatography. The radiolabelled isoprenyl pyrophosphate substrates, [^3H]farnesyl pyrophosphate and [^3H]geranylgeranyl pyrophosphate, were purchased from DuPont/New England Nuclear. Several methods for measuring farnesyl protein transferase activity have been described (Reiss et al 1990, Cell 62: 81; Schaber et al 1990, J. Biol. Chem. 265: 14701; Manne et al 1990, PNAS 87: 7541; and Barbacid & Manne 1993, U.S. Patent No. 5,185,248). […] The reaction was allowed to proceed for 30 minutes at room temperature and then stopped with 0.5 ml of 4% sodium dodecyl sulfate (SDS) followed by 0.5 ml of cold 30% TCA. Samples were allowed to sit on ice for 45 minutes and precipitated Ras protein was then collected on GF/C filter paper mats using a Brandel cell harvester. Filter mats were washed once with 6% TCA, 2% SDS and radioactivity was measured in a Wallac 1204 Betaplate BS liquid scintillation counter. Percent inhibition was calculated relative to the DMSO vehicle control. The geranylgeranyl protein transferase I assay was essentially identical to the farnesyl protein transferase assay described above, with two exceptions: [^3H]geranylgeranylpyrophosphate replaced farnesyl pyrophosphate as the isoprenoid donor and Ras-CVLL was the protein acceptor. […] Cell-Based Assay: Transient expression of val^12-Ha-Ras-CVLS and val^12-Ha-Ras-CVLL in COS monkey kidney cells: Effect of farnesyl protein transferase inhibitors on Ras processing and on disordered cell growth induced by transforming Ras. COS monkey kidney cells were transfected by electroporation with the plasmid pSV-SPORT (Gibco/BRL) containing a cDNA insert encoding either Ras-CVLS or Ras-CVLL, leading to transient overexpression of a Ras substrate for either farnesyl protein transferase or geranylgeranyl protein transferase I, respectively (see above). Following electroporation, cells were plated into 6-well tissue culture dishes containing 1.5 ml of Dulbecco's-modified Eagle's media (GIBCO, Inc.) supplemented with 10% fetal calf serum and the appropriate farnesyl protein transferase inhibitors. After 24 hours, media was removed and fresh media containing the appropriate drugs was re-added.
# [2] = test system: T24-BAG4 human bladder carcinoma cells expressing an activated H-ras gene; test: Cell Mat Assay, T24 tumor cells; type: cell-based; conditions: read-out: Tumor (T-24) IC50
# [3] = test system: SW620-BAG human colon carcinoma cells expressing an activated K-ras gene; test: Cell Mat Assay, SW620 tumor cells; type: cell-based
# [4] = test system: Normal human HEPM fibroblasts; test: Cell Mat Assay, normal cell mat; type: cell-based; conditions: normal monolayer
# [5] = test system: DLD-1-BAG human colon carcinoma cells expressing as activated K-ras gene; test: Cell Mat Assay, DLD-1 tumor cells; type: cell-based
# [6] = molecular target: T1, farnesyl protein transferase (FPT) (Rattus norvegicus, UniProt Q02293+Q04631); test: In vitro enzyme assay: inhibition of farnesyl protein transferase (transfer of [3H]farnesyl to Ras-CVLS); type: biochemical; conditions: partially purified rat brain FPT, Ras-CVLS
# T1 construct: were partially purified from rat brain by ammonium sulfate fractionation followed by Q-Sepharose; from tissue; host or cells: rat brain
# Protocol: • 1. In vitro enzyme assays: Inhibition of farnesyl protein transferase and geranylgeranyl protein transferase. […] Human farnesyl protein transferase was also expressed in E. coli, using cDNA clones encoding both the a and b subunits. […] Human farnesyl protein transferase was partially-purified from the soluble protein fraction of E. coli as described above. […] Two forms of val^12-Ha-Ras protein were prepared as substrates for these enzymes, differing in their carboxy terminal sequence. One form terminated in cysteine-valine-leucine-serine (Ras-CVLS) the other in cystein-valine-leucine-leucine (Ras-CVLL). Ras-CVLS is a substrate for the farnesyl protein transferase while Ras-CVLL is a substrate for geranylgeranyl protein transferase I. The cDNAs encoding these proteins were constructed so that the proteins contain an amino-terminal extension of 6 histidine residues. Both proteins were expressed in Escherichia coli and purified using metal chelate affinity chromatography. The radiolabelled isoprenyl pyrophosphate substrates, [^3H]farnesyl pyrophosphate and [^3H]geranylgeranyl pyrophosphate, were purchased from DuPont/New England Nuclear. […] The reaction was allowed to proceed for 30 minutes at room temperature and then stopped with 0.5 ml of 4% sodium dodecyl sulfate (SDS) followed by 0.5 ml of cold 30% TCA. Samples were allowed to sit on ice for 45 minutes and precipitated Ras protein was then collected on GF/C filter paper mats using a Brandel cell harvester. […] Percent inhibition was calculated relative to the DMSO vehicle control. The geranylgeranyl protein transferase I assay was essentially identical to the farnesyl protein transferase assay described above, with two exceptions: [^3H]geranylgeranylpyrophosphate replaced farnesyl pyrophosphate as the isoprenoid donor and Ras-CVLL was the protein acceptor. […] Cell-Based Assay: Transient expression of val^12-Ha-Ras-CVLS and val^12-Ha-Ras-CVLL in COS monkey kidney cells: Effect of farnesyl protein transferase inhibitors on Ras processing and on disordered cell growth induced by transforming Ras. COS monkey kidney cells were transfected by electroporation with the plasmid pSV-SPORT (Gibco/BRL) containing a cDNA insert encoding either Ras-CVLS or Ras-CVLL, leading to transient overexpression of a Ras substrate for either farnesyl protein transferase or geranylgeranyl protein transferase I, respectively (see above). Following electroporation, cells were plated into 6-well tissue culture dishes containing 1.5 ml of Dulbecco's-modified Eagle's media (GIBCO, Inc.) supplemented with 10% fetal calf serum and the appropriate farnesyl protein transferase inhibitors. After 24 hours, media was removed and fresh media containing the appropriate drugs was re-added. 48 hours after electroporation cells were examined under the microscope to monitor disordered cell growth induced by transforming Ras. Cells expressing transforming Ras become more rounded and refractile and overgrow the monolayer, reminiscent of the transformed phenotype. Cells were then photographed, washed twice with 1 ml of cold phosphate-buffered saline (PBS) and removed from the dish by scraping with a rubber policeman into 1 ml of a buffer containing 25 mM Tris, pH 8.0; 1 mM ethylenediamine tetraacetic acid; 1 mM phenylmethylsulfonyl fluoride; […] leupeptin; and 0.1 mM pepstatin. Cells were lysed by homogenization and cell debris was removed by centrifugation at 2000 x g for 10 min. Cellular protein was precipitated by addition of ice-cold trichloroacetic acid and redissolved in […] of SDS-electrophoresis sample buffer. […] Proteins resolved on the gels were electroblotted onto nitrocellulose membranes for immunodetection. […] After washing, membranes were incubated for one hour at room temperature with a 1:5000 dilution of secondary antibody, rabbit anti-rat IgG conjugated to horseradish peroxidase, in PBS containing 1% fetal calf serum.
# [7] = test system: DLD-1 (human colon carcinoma cells, ATCC # CCL 221); test: In Vivo Anti-Tumor Studies, subcutaneous DLD-1 tumors; set-up: species or system athymic nu/nu female mice; conditions: Mus musculus, DLD-1, po, QID, 4 weeks, range over the listed compounds
# Description: Tumor cells (5 X 10^5 to 8 X 10^6) of DLD-1 (human colon carcinoma cells, ATCC # CCL 221) are innolculated subcutaneously into the flank of 5-6 week o;d athymic nu/nu female mice.
# [8] = Homo sapiens, SW-620, Mat assay
Compound,"IC50 ([1]; Primates, COS)",IC50 ([2]; Homo sapiens),"IC50 [3, 8]","IC50 ([4]; Homo sapiens, Fibroblast)","IC50 ([5]; Homo sapiens, DLD-1, Mat assay)","IC50 ([6]; Table 1, read-out: FPT IC50)",IC50 [1],IC50 [2],IC50 ([3]; Mat assay),IC50 [4],IC50 ([5]; Mat assay),inhibition in vivo at 10 mg/kg ([7]; 10 mg/kg p.o.),inhibition in vivo at 50 mg/kg ([7]; 50 mg/kg p.o.),"IC50 ([6]; FPT IC50, Table 1)"
NC(=O)N1CCC(CC(=O)N2CCN([C@H]3c4ccc(Cl)cc4CCc4cc(Br)cnc43)CC2)CC1 [Example 17A],0.5 µM,3.1 µM,18 µM,> 25 µM,4 µM,0.048 µM,,,,,,,,
"O=C(Cc1cc[n+]([O-])cc1)N1CCC(C2c3ccc(Cl)c(Br)c3CCc3cc(Br)cnc32)CC1 (single isomer, unassigned) [Example 14]",,,,,,0.062 µM,> 1 µM,< 1.6 µM,> 12.5 µM,> 25 µM,6.25 µM,,,
"NC(=O)N1CCC(CC(=O)N2CCN(C3c4ncc(Br)cc4CCc4cc(Cl)cc(Br)c43)CC2)CC1 (single isomer, unassigned) [Example 12B]",,,,,,,< 0.025 µM,< 1.6 µM,6.25 µM,> 25 µM,3.1 µM,7 to 50%,35.4 to 83%,0.0025 µM
"NC(=O)N1CCC(CC(=O)N2CCC(=C3c4ncc(Br)cc4CCc4cc(Cl)cc(Br)c43)CC2)CC1 (single isomer, unassigned) [Example 8A]",,< 1.6 µM,3.1 µM,> 25 µM,< 1.6 µM,,> 1 µM,,,,,,,
NC(=O)N1CCC(CC(=O)N2CCC(=C3c4ccc(Cl)c(Br)c4CCc4cc(Br)cnc43)CC2)CC1 (racemic) [Example 15],0.6 µM,3.1 µM,> 6.25 µM,> 25 µM,6.25 µM,0.022 µM,,,,,,,,
"NC(=O)N1CCC(CC(=O)N2CCN(C3c4ncc(Br)cc4CCc4cc(Cl)cc(Br)c43)CC2)CC1 (single isomer, unassigned) [Example 12A]",,< 1.6 µM,4 µM,> 25 µM,2 µM,,0.95 µM,,,,,,,> 0.094 µM
